Structures are written as SMILES.

One assay has as its target T1, CCR1 (Homo sapiens, UniProt P32246).
T1 construct: host or cells: THP-1 myelomonocytic leukemia cells (or freshly isolated monocytes)
T1 sequence (P32246 1-355): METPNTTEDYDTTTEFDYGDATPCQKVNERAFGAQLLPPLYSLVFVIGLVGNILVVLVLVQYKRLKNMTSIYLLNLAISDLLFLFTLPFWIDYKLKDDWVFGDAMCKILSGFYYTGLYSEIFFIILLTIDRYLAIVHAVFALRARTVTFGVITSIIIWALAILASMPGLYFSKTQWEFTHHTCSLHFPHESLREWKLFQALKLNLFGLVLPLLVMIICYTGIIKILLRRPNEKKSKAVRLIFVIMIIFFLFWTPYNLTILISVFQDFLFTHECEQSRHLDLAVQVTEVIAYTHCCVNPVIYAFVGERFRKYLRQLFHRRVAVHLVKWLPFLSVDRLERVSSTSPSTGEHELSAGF
Kind of assay: Chemotaxis (migration) assay. In kind it is cell-based. As to conditions: THP-1 or monocyte cells, CCR1 chemokine ligand (MIP-1α, CCL15/Leukotactin), 1-2 hours at 37° C. As for the experimental part:
THP-1 cells were obtained from ATCC (TIB-202) and cultured as a suspension in RPMI-1640 medium supplemented with 2 mM L-glutamine, 1.5 g/L sodium bicarbonate, 4.5 g/L glucose, 10 mM HEPES, 1 mM sodium pyruvate, 0.05% 2-mercaptoethanol and 10% FBS. Cells were grown under 5% CO2/95% air, 100% humidity at 37° C. and subcultured twice weekly at 1:5 (cells were cultured at a density range of 2×10^5 to 2×10^6 cells/mL) and harvested at 1×10^6 cells/mL. THP-1 cells express CCR1 and can be used in CCR1 binding and functional assays.
Chemotaxis assays were performed using 5 μm pore polycarbonate, polyvinylpyrrolidone-coated filters in 96-well chemotaxis chambers (Neuroprobe; Gaithersburg, Md.) using chemotaxis buffer (Hank's balanced salt solution (HBSS) and 1% FBS). CCR1 chemokine ligands (i.e., MIP-1α, CCL15/Leukotactin; R&D Systems; Minneapolis, Minn.) are use to evaluate compound mediated inhibition of CCR1 mediated migration. Other chemokines (i.e., SDF-1α; R&D Systems; Minneapolis, Minn.) are used as specificity controls. The lower chamber was loaded with 29 μl of chemokine (i.e., 0.1 nM CCL15/Leukotactin) and varying amounts of compound, the top chamber contained 100,000 THP-1 or monocyte cells in 20 μl. The chambers were incubated 1-2 hours at 37° C., and the number of cells in the lower chamber quantified either by direct cell counts in five high powered fields per well or by the CyQuant assay (Molecular Probes), a fluorescent dye method that measures nucleic acid content and microscopic observation.
One of the primary functions of chemokines is their ability to mediate the migration of chemokine receptor-expressing cells, such as white blood cells. To confirm that a compound of interest inhibited not only CCR1 specific binding and signaling (at least as determined by calcium mobilization assays), but also CCR1 mediated migration, a chemotaxis assay was employed. THP-1 myelomonocytic leukemia cells, which resemble monocytes, as wells as freshly isolated monocytes, were used as targets for chemoattraction by CCR1 chemokine ligands (i.e., MIP-1α, CCL15/leukotactin). Cells were placed in the top compartment of a microwell migration chamber, while MIP-1α (or other potent CCR1 chemokine ligand) and increasing concentrations of a compound of interest was loaded in the lower chamber. […] To ascertain a compound of interest's affinity for CCR1 as well as to confirm its ability to inhibit CCR1 mediated cell migration, inhibitory activity was titered over a 1×10^−10 to 1×10^−4 M range of compound concentrations in this chemotaxis assay. In this assay, the amount of compound was varied; while cell number and chemokine agonist concentrations were held constant. After the chemotaxis chambers were incubated 1-2 hours at 37° C., the responding cells in the lower chamber were quantified by labeling with the CyQuant assay (Molecular Probes), a fluorescent dye method that measures nucleic acid content, and by measuring with a Spectrafluor Plus (Tecan). The computer program Prism from GraphPad, Inc. (San Diego, Ca) was used to calculate IC50 values. IC50 values are those compound concentrations required to inhibit the number of cells responding to a CCR1 agonist by 50%.

Assay [1] relates to inflammatory cells recruited to the inflamed synovial fluid of the knee joints. As to the kind of experiment: Rabbit model of destructive joint inflammation (rabbit LPS study). Format: in vivo, Female New Zealand rabbits. As to conditions: intra-articular LPS (10 ng), dosed orally in 1% methocel 2 hours before and 4 hours after LPS, knees lavaged sixteen hours after LPS. As for the experimental part:
A rabbit LPS study was conducted essentially as described in Podolin, et al. J. Immunol. 169(11):6435-6444 (2002). Female New Zealand rabbits (approximately 2 kilograms) were treated intra-articularly in both knees with LPS (10 ng). The compound of interest, for example 1.016, (formulated in 1% methocel) or vehicle (1% methocel) was dosed orally at a 5 ml/kg dose volume at two times (2 hours before the intra-articular LPS injection and 4 hours after the intra-articular LPS injection). Sixteen hours after the LPS injection, knees were lavaged and cells counts were performed. Beneficial effects of treatment were determined by reduction in the number of inflammatory cells recruited to the inflamed synovial fluid of the knee joints.

As a reminder, the IC50 is the concentration at which inhibition is half-maximal. Lower therefore signals greater potency. With `Cc1nc(C(F)(F)F)cn1C(C)C(=O)Nc1cnn(-c2ccc(F)cc2)c1C(C)C` (stereo not drawn) [1.018], on CCR1, the IC50 is ≤ 100 nM.
Consider `Cc1nc(C(F)(F)F)cn1C(C)C(=O)Nc1cnn(-c2ccc(Cl)cc2)c1C(C)C` (stereo not drawn) [1.015], for which the IC50 on CCR1 was ≤ 100 nM.
Still for that read-out and setting: then `Cc1nc(C(F)(F)F)nn1C(C)C(=O)Nc1cnn(-c2ccc(Cl)cc2)c1C(C)C` (stereo not drawn) [1.010], with ≤ 100 nM; and `Cc1c(NC(=O)Cn2nc(C(F)(F)F)c(Cl)c2C)ncn1-c1ccc(F)cc1` [1.020], with 100 to 10000 nM; and `CCC(C(=O)Nc1cnn(-c2ccc(F)cc2)c1C(C)C)n1cc(C(F)(F)F)nc1C` (stereo not drawn) [1.019], with ≤ 100 nM.
On the same count and under the same terms, the result for `Cc1c(Cl)c(C(F)(F)F)nn1CC(=O)Nc1cnn(-c2ccc(F)cc2)c1-c1ccccc1` [1.021] reads 100 to 10000 nM.
With `Cc1c(Cl)c(C(F)(F)F)nn1C(C)C(=O)Nc1cnn(-c2ccc(F)cc2)c1C(C)C` (stereo not drawn) [1.016], the IC50 against CCR1 is ≤ 100 nM. Further, in assay [1], the “reduction in the number of inflammatory cells recruited to the inflamed synovial fluid of the knee joints” value was “significant reduction in recruited inflammatory cells”.
Regarding `Cc1nc(C(F)(F)F)cn1C(C)C(=O)Nc1cnn(-c2ccc(Cl)cc2)c1C(C)C` (stereo not drawn) [1.011], the IC50 against CCR1 was ≤ 100 nM.
As to `Cc1nc(C(F)(F)F)c2n1C(C(=O)Nc1cnn(-c3ccc(Cl)cc3)c1C(C)C)CCC2` (stereo not drawn) [1.012], the IC50 against CCR1 was ≤ 100 nM.
For `Cc1c(Cl)c(C(F)(F)F)nn1CC(=O)Nc1cnn(-c2ccc(F)cc2)c1` [1.027], at CCR1, the IC50 lay in the range of 100 to 10000 nM.
At CCR1, `Cc1nc(C(F)(F)F)nn1C(C)C(=O)Nc1cnn(-c2ccc(F)cc2)c1C(C)C` (stereo not drawn) [1.008] returned an IC50 of 100 to 10000 nM.
Consider `Cc1nc(C(F)(F)F)cn1C(C)C(=O)Nc1nnn(-c2ccc(Cl)cc2)c1C(C)C` (stereo not drawn) [1.001], for which the IC50 at CCR1 is ≤ 100 nM.
Still for that read-out and setting: then `CCc1c(NC(=O)Cn2nc(C(F)(F)F)c(Cl)c2C)cnn1-c1ccc(F)cc1` [1.023], with 100 to 10000 nM; and `Cc1nc(C(F)(F)F)cn1C(C)C(=O)Nc1cnn(-c2ccc(F)cc2)c1C(C)(C)C` (stereo not drawn) [1.013], with 100 to 10000 nM; and `CCOc1c(NC(=O)C(C)n2cc(C(F)(F)F)nc2C)cnn1-c1ccc(F)cc1` (stereo not drawn) [1.006], with 100 to 10000 nM.
On CCR1, `Cc1nc(C(F)(F)F)cn1C(C)C(=O)Nc1cnn(-c2ccc(Cl)cc2)c1C1CC1` (stereo not drawn) [1.002] registered an IC50 of 100 to 10000 nM.
On the same count and under the same terms, the result for `Cc1c(Cl)c(C(F)(F)F)nn1CC(=O)Nc1cnn(-c2ccc(F)cc2)c1C(C)C` [1.022] reads ≤ 100 nM; that for `CCC(C(=O)Nc1cnn(-c2ccc(F)cc2)c1C(C)C)n1nc(C(F)(F)F)c(Cl)c1C` (stereo not drawn) [1.017], ≤ 100 nM.
As to `Cc1nc(C(F)(F)F)cn1C(C)C(=O)Nc1cnn(-c2ccc(F)cc2)c1N(C)C` (stereo not drawn) [1.003], the IC50 against CCR1 is 100 to 10000 nM.
In turn, `Cc1c(Cl)c(C(F)(F)F)nn1CC(=O)N(C)c1cnn(-c2ccc(F)cc2)c1` [1.026] came in with an IC50 on CCR1 of 100 to 10000 nM.
In turn, `Cc1c(Cl)c(C(F)(F)F)nn1C(CCCCO)C(=O)Nc1cnn(-c2ccc(F)cc2)c1C(C)C` (stereo not drawn) [1.014] registered an IC50 against CCR1 of 100 to 10000 nM.
Take `Cc1nc(C(F)(F)F)cn1C(C)C(=O)Nc1cnn(-c2ccc(F)cc2)c1OC(C)C` (stereo not drawn) [1.005]: on CCR1, the IC50 was in the range of 100 to 10000 nM.
For `Cc1c(Cl)c(C(F)(F)F)nn1C(C)(C)C(=O)Nc1cnn(-c2ccc(F)cc2)c1C(C)C` [1.007], the half-inhibitory concentration (IC50) on CCR1 is 100 to 10000 nM.
The same measure, in the same setting: the result for `Cc1c(Cl)c(C(F)(F)F)nn1CC(=O)Nc1cnn(-c2ccc(F)cc2)c1C` [1.025] reads 100 to 10000 nM.
For `Cc1nc(C(F)(F)F)cn1[C@@H](C)C(=O)Nc1cnn(-c2ccc(Cl)cc2)c1C1CCC1` [1.029], the IC50 at CCR1 is ≤ 100 nM.
The same measure, in the same setting: then `Cc1nc(C(F)(F)F)cn1C(C)C(=O)Nc1cnn(-c2ccc(F)cc2)c1C` (stereo not drawn) [1.024], with 100 to 10000 nM; and `Cc1nc(C(F)(F)F)cn1C(C)C(=O)Nc1cnn(-c2ccc(F)cc2)c1Cl` (stereo not drawn) [1.004], with 100 to 10000 nM; and `Cc1nc(C(F)(F)F)cn1C(C)C(=O)Nc1cnn(-c2ccc(F)cc2)c1C(C)C` (stereo not drawn) [1.009], with ≤ 100 nM.
Same read-out and setting: the result for `Cc1nc(C(F)(F)F)cn1C(C)C(=O)Nc1cnc(-c2ccc(Cl)cc2)n1C(C)C` (stereo not drawn) [1.028] reads 100 to 10000 nM.

Values taken from US10342781B2, “Diazole amides” (CHEMOCENTRYX, INC., priority 2012, dated 2019).
